Results from US20080200439A1, “Methods and compositions for modulating BK channel activity and vasodilation” (University of Tennessee Research Foundation, priority 2006, published 2008).

Legend:
[1] = tested on: pressurized cerebral arteries from wt mice; experiment: Artery diameter measurement, pressurized cerebral arteries from wt C57BL/6 mice; set-up: species or system mouse
Description: Artery Diameter Measurement. Middle cerebral arteries were isolated from adult male Sprague-Dawley rats (=250 g) or 8- to 12-week-old β1-knockout and C57BL/6 control mice. Rats and mice were decapitated using a guillotine and sharp scissors, respectively. These procedures were approved by the Institutional Animal Care and Use Committee from The University of Tennessee Health Science Center, an AMLAC-accredited institution. Pressurization of arteries was performed as described (Liu et al., 2004). Endothelium was removed by passing an air bubble into the vessel lumen for 90 sec. Diameter changes were monitored through an inverted microscope (Nikon Eclipse TS100, Nikon Corp., Tokyo, Japan), recorded on camera (Sanyo VCB-3512T, Sanyo Electric Corp., Japan), and transferred to a computer. Diameter data were acquired and analyzed using IonWizard 4.4 software (IonOptics Corp., Milton, Mass., United States of America). […]
Data Analysis. […] Arterial diameter and electrophysiological data were analyzed with IonWizard 4.4 (IonOptics Corp., Milton, Mass., United States of America) and pCLAMP 8.0 (Molecular Devices, Union City, Calif., United States of America). […]
To determine the impact of LC targeting of BK β1-subunits on organ function, LC action on the arterial diameter of pressurized cerebral arteries was evaluated from β1-knockout vs. wt C57BU6 mice (controls). […]

[2] = biological target: T1, cbv1+β4 channels (Rattus norvegicus, UniProt Q62976); experiment: Patch-clamp of cbv1+β4 channels expressed in Xenopus oocytes; type: cell-based
T1 construct: Full-length cDNA coding for cbv1-subunits was cloned from rat cerebral artery myocytes by PCR; expressed in transfected cells; host or cells: Xenopus laevis oocytes (cRNA co-injection)
T1 sequence (Q62976 1-1148 isoform Q62976-2): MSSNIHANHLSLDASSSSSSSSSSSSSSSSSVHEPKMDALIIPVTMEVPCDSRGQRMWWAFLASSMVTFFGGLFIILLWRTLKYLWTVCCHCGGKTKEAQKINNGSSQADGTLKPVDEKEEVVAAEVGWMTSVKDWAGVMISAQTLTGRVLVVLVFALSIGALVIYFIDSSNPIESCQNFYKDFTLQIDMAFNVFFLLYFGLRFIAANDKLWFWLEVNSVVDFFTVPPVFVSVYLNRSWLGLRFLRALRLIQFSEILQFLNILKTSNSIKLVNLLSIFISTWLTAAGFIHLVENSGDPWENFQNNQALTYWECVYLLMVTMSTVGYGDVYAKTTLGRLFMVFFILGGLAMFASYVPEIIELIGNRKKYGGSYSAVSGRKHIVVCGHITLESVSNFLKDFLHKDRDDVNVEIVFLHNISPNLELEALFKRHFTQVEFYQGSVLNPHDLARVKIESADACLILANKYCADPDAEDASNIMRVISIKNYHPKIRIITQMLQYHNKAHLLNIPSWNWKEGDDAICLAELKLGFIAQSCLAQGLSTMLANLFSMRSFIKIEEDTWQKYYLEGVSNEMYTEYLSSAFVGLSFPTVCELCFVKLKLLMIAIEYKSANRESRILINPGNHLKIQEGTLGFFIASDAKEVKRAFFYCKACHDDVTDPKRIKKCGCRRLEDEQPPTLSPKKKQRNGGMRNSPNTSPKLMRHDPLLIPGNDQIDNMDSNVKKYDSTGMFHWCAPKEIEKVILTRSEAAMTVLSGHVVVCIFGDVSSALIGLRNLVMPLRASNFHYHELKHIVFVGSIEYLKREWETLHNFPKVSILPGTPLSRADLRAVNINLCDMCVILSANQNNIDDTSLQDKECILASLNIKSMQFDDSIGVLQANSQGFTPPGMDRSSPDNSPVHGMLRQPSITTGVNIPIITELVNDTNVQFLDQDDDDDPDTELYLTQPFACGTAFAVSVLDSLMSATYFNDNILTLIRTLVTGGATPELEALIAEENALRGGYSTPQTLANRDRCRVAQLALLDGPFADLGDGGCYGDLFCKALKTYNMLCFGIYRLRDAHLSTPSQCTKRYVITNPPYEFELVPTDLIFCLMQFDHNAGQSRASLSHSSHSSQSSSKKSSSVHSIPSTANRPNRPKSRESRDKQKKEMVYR
T1 sequence (Q86W47 whole entry partner): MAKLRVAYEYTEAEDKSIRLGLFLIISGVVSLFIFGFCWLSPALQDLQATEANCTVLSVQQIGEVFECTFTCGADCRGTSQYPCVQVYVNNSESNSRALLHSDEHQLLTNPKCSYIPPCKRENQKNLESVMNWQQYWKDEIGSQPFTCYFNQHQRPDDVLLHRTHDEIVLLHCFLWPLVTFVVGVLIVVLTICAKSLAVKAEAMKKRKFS
Excerpt: cRNA Preparation and Injection into Xenopus Oocytes. Full-length cDNA coding for cbv1-subunits was cloned from rat cerebral artery myocytes by PCR and ligated to the PCR-XL-TOPO cloning vector (Invitrogen Corp., Carlsbad, Calif., United States of America) (Jaggar et al., 2005). cDNA coding for cbv1-subunits was cleaved from the cloning vector by BamHI (Invitrogen Corp., Carlsbad, Calif., United States of America) and XhoI (Promega, Madison, Wis., United States of America) and directly inserted into the pOX vector for expression in Xenopus oocytes. pOX-cbv1 was linearized with NotI (Promega, Madison, Wis., United States of America) and transcribed in vitro using T3 polymerase. […]
Electrophysiology. […] Single-channel and macroscopic currents were recorded from inside-out (I/O) or outside-out (O/O) patches. […] Nominal free Ca^2+ was calculated with MaxChelator Sliders (C. Patton, Stanford University, California, United States of America) and validated experimentally using Ca^2+-selective electrodes (Corning Incorporated Science Products Division, Corning, N.Y., United States of America). […]
Currents were recorded using an EPC8 amplifier (HEKA Electronics, Lambrecht/Pfalz, Germany) at 1 kHz using a low-pass, eight-pole Bessel filter 902LPF (Frequency Devices, Haverhill, Mass., United States of America). […]

Row | Molecule | Increase in diameter from initial diameter ([1]; 45 μM, wt mouse cerebral arteries) | remaining activity at 150 µM ([2]; 150 μM, I/O patches, conditions identical to cbv1 and cbv1+β1, read-out: NPo (% of control)) [%] | Decrease from initial diameter (vasoconstriction) ([1]; 55 nM, within 15 min of application, control mice) [%] | Block of channel NPo ([2]; 55 nM, protracted exposure)
1 | C[C@H](CCC(=O)O)[C@H]1CC[C@H]2[C@@H]3CC[C@@H]4C[C@H](O)CC[C@]4(C)[C@H]3CC[C@]12C [LC, 5β-cholanic acid 3α-ol] | +4.4±0.9% | 109 ± 11 |  | 
2 | iberiotoxin (QFTDVDCSVSKECWSVCKDLFGVDRGKCMGKKCRCYQ; UniProt P24663 1-37, looked up) [Ibtx, reference compound] |  |  | −8.7±4.2 | resistance to block
